Here are results for 28 compounds from publication PMC5259792, “A new serotonin 5-HT6 receptor antagonist with procognitive activity – Importance of a halogen bond interaction to stabilize the binding” (Scientific Reports, 2017).

Entries after “also recorded” stand apart in the source; their conditions may differ.

The target in series [1] is human 5-HT6R (Homo sapiens, UniProt P50406). Briefly: 5-HT6R radioligand competitive binding assay ([3H]LSD).
Series [2] addresses T1, 5-HT6R F285A (Homo sapiens, UniProt P50406, F285A).
T1 construct: host or cells: HEK-293
As to the kind of experiment: 5-HT6R AC assay (cAMP), F285A mutant. In kind it is cell-based.

The target in series [3] is T2, 5-HT6R C110A (Homo sapiens, UniProt P50406, C110A).
T2 construct: host or cells: HEK-293
T2 sequence (P50406 whole entry C110A): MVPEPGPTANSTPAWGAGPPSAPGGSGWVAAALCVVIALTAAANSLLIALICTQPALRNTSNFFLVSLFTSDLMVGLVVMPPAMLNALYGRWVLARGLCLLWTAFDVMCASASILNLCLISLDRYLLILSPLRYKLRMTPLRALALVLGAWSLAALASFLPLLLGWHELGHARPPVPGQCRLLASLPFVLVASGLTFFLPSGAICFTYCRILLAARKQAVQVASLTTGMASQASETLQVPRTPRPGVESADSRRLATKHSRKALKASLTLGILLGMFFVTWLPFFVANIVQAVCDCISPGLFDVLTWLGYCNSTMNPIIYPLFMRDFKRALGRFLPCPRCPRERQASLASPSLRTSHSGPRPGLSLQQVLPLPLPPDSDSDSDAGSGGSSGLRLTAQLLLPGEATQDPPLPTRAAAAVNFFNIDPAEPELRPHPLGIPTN
As to the kind of experiment: 5-HT6R AC assay (cAMP), C110A mutant. In kind it is cell-based.

Series [4] concerns the target T3, human 5-HT6R WT (Homo sapiens, UniProt P50406).
T3 construct: host or cells: HEK-293
As to the kind of experiment: 5-HT6R AC assay (cAMP), wild type receptor. In kind it is cell-based. Conditions: for disappearance of the 5-HT induced response / functional character at the human 5-HT6R in the AC assay / increase in cAMP levels by ligand alone (agonist effect): HEK-293 cells expressing human 5-HT6R; for IC50: read-out: pIC50, inhibition of 5-HT-induced stimulation of cAMP (converted). For orientation: Cyclic AMP is a second messenger, typically raised through Gs and lowered through Gi signalling.

The target in series [5] is T4, 5-HT6R N288A (Homo sapiens, UniProt P50406, N288A).
T4 construct: host or cells: HEK-293
T4 sequence (P50406 whole entry N288A): as the sequence (P50406 whole entry C110A) above, with A110C, N288A counted along it
As to the kind of experiment: 5-HT6R AC assay (cAMP), N288A mutant. Format: cell-based.

For series [6], the target named is T5, 5-HT6R S193A (Homo sapiens, UniProt P50406, S193A).
T5 construct: host or cells: HEK-293
T5 sequence (P50406 whole entry S193A): as the sequence (P50406 whole entry C110A) above, with A110C, S193A counted along it
Briefly: 5-HT6R AC assay (cAMP), S193A mutant. In kind it is cell-based.

Series [7] is described as follows: Metabolic stability in human liver microsomes. In kind it is in vitro ADME. Conditions: HLMs, compound at 5 μM. The method, then: (§1) The high-affinity antagonist 7 was selected for the assessment of in vitro pharmacokinetic properties. Metabolic stability using rat and human liver microsomes (RLMs and HLMs, respectively) was determined as a measure of first-pass metabolism. Test compound was incubated at a concentration of 1 and 5 μM with RLM and HLM preparations, respectively. The half-life time (t1/2) was used to calculate the intrinsic clearance (CLint). […] An in vitro fluorescence-based inhibition assay was conducted with cytochrome P450 2D6 (CYP2D6), one of the most important enzymes involved in drug metabolism, using human recombinant microsomal CYP2D6 enzyme, AMMC {3-[2-(N,N-diethyl-N-methylamino)ethyl]-7-methoxy-4-methylcoumarin} as substrate, and quinidine as control inhibitor. After 30 min of incubation with compound 7 at a concentration of 10 μM, a remaining activity of 78% of the cytochrome was found.
(§2) RLM and HLM stability, HSA binding, and fluorescence-based CYP2D6 inhibition assays were performed according to previously reported procedures. Inhibition of hERG K^+ channel current was determined in an automated patch clamp assay using whole CHO-K1 cells at Eurofins Panlab (USA), according to previously published method.
(In general: Microsomes from liver hold many membrane-bound enzymes, among them those of drug oxidation.)

Series [8] addresses T6, hERG K+ channel (Homo sapiens, UniProt Q12809).
T6 construct: host or cells: CHO-K1
As to the kind of experiment: hERG whole-cell patch clamp assay. In kind it is cell-based. Conditions: CHO-K1 cells, n = 3, read-out: IC50, blockade of hERG K+ channel current. On the technique in general: hERG is a cardiac potassium channel; its block is linked to QT prolongation.

In series [9] the test system is rats (time-induced memory deficit). Briefly: Novel object recognition task (NORT). Conditions: male Wistar rats, 60 min before each session. Format: in vivo, rat.
Series [10] deals with T7, serotonin 5-HT2B receptor (Homo sapiens, UniProt P41595).
T7 construct: Eurofins Cerep (France)
T7 sequence (P41595 whole entry): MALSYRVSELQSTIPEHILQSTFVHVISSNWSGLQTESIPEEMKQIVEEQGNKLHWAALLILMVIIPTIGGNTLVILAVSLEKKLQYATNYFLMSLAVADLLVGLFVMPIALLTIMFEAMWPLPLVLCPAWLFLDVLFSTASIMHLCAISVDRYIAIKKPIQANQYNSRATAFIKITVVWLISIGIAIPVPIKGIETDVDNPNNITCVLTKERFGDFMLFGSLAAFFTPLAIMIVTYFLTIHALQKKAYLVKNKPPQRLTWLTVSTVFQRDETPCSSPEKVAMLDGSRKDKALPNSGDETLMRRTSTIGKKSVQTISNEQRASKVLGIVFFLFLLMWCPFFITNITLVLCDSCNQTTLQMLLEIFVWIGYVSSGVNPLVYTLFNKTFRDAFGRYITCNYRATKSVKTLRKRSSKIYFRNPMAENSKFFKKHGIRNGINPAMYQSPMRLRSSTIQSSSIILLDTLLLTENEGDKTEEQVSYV
Briefly: Selectivity panel radioligand binding, 5-HT2B. Conditions: [3H]mesulergine, 60 min, RT, read-out: Inhibition (%) (displacement of radioligand).

Series [11] has as its target CYP2D6 (Homo sapiens, UniProt P10635). Briefly: Fluorescence-based CYP2D6 inhibition assay. Format: in vitro ADME. Conditions: human recombinant microsomal CYP2D6 enzyme, 30 min incubation, AMMC substrate, read-out: remaining activity of CYP2D6. The method, then: as §1, §2
The target of series [12] is T8, serotonin 5-HT2A receptor (Homo sapiens, UniProt P28223).
T8 construct: Eurofins Cerep (France)
T8 sequence (P28223 whole entry): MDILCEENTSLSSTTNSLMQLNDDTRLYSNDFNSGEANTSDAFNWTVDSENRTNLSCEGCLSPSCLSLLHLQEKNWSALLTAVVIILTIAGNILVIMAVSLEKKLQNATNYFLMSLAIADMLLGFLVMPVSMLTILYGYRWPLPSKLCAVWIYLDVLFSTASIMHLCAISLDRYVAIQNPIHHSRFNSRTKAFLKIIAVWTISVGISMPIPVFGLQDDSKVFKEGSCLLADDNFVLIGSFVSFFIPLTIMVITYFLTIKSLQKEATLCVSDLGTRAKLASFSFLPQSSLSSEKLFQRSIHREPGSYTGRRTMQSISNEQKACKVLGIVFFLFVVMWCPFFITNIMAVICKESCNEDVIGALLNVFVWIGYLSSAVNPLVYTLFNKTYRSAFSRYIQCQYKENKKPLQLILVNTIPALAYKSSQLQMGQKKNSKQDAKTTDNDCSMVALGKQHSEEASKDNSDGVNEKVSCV
As to the kind of experiment: Selectivity panel radioligand binding, 5-HT2A. Conditions: [3H]ketanserin (0.5 nM), 60 min, RT, read-out: Inhibition (%) (displacement of radioligand).

The nature of series [13]: Metabolic stability in rat liver microsomes. In kind it is in vitro ADME. On the procedure:
as §1, §2

Series [14] deals with human serum albumin (HSA) (Homo sapiens, UniProt P02768). As to the kind of experiment: HSA binding. Format: in vitro ADME. Conditions: 5 μM.
Chain of human serum albumin (HSA) (P02768 25-609): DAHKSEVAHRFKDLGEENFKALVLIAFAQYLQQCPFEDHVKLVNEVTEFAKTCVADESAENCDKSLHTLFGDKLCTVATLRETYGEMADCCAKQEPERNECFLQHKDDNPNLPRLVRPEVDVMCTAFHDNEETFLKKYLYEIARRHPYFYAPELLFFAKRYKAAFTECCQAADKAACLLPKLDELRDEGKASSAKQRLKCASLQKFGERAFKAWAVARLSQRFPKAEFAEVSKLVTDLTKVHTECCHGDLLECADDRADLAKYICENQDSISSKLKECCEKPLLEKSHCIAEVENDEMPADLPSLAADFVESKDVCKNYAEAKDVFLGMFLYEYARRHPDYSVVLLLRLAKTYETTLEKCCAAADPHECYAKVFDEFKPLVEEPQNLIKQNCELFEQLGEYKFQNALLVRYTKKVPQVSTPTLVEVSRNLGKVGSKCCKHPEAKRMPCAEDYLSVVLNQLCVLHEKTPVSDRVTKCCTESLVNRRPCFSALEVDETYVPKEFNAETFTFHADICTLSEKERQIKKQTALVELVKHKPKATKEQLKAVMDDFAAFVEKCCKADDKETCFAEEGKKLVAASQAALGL
Series [15] is described as follows: Parallel artificial membrane permeability assay (PAMPA). In kind it is in vitro ADME. Conditions: PBS pH 7.4, 25 °C, read-out: permeability value (P).
The mark [16] stands for this setting: read-out: pIC50, inhibition of 5-HT-induced stimulation of cAMP (converted).

T3 sequence (P50406 whole entry): as the sequence (P50406 whole entry C110A) above, with A110C counted along it
Chain of human 5-HT6R (P50406 whole entry): as the sequence (P50406 whole entry C110A) above, with A110C counted along it
T1 sequence (P50406 whole entry F285A): as the sequence (P50406 whole entry C110A) above, with A110C, F285A counted along it
Chain of CYP2D6 (P10635 whole entry): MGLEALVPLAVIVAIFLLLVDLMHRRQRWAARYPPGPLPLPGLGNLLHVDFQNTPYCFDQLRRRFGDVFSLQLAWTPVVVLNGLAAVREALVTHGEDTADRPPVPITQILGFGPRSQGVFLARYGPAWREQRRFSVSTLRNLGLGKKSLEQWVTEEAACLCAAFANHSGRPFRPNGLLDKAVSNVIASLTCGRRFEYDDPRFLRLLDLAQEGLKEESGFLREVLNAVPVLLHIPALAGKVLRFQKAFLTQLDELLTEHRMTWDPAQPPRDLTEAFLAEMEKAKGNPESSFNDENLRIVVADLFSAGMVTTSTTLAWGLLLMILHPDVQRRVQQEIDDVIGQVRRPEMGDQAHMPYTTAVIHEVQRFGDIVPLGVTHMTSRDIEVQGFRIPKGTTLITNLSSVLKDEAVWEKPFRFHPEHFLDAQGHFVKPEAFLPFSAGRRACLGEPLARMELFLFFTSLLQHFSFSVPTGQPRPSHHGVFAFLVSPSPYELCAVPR
T6 sequence (Q12809 whole entry): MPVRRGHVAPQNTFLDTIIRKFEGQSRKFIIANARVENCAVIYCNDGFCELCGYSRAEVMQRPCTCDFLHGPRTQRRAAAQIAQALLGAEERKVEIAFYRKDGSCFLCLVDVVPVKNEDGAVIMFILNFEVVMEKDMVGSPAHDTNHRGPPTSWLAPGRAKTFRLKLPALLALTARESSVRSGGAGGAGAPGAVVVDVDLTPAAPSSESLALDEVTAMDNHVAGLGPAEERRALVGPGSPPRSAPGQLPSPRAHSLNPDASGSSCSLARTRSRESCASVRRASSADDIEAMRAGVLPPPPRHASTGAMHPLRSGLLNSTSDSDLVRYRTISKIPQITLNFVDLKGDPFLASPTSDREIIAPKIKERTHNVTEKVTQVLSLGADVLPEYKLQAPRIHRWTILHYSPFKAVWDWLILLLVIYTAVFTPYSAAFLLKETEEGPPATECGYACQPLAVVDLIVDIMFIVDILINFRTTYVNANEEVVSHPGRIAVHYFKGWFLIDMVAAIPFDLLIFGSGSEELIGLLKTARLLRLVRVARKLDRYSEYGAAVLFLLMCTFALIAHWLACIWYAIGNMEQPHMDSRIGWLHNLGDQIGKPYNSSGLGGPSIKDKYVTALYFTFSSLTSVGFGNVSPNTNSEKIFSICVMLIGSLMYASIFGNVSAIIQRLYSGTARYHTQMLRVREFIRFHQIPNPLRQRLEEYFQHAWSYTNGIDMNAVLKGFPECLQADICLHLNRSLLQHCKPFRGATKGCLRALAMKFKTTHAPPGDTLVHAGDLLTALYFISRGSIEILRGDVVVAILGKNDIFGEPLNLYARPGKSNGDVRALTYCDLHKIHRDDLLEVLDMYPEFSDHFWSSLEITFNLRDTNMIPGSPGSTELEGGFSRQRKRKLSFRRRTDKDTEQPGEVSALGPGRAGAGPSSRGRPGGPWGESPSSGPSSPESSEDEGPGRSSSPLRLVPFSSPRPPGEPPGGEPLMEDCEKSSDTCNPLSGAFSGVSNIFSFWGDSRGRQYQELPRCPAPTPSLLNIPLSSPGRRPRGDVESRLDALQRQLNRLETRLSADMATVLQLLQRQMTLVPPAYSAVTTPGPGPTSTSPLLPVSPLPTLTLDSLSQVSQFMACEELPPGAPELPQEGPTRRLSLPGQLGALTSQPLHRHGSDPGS

Take `CN(C)CCn1cnc2c(NS(=O)(=O)c3ccccc3)cccc21` [Compound 2]: the melting point (in general, the temperature of the solid-liquid transition) was 121 to 123 °C. Moreover, the affinity in [1] corresponds to a Ki of 243 ± 15 nM.

Compound `CN(C)CCn1cnc2cc(NS(=O)(=O)c3ccccc3)ccc21` [Compound 3] displayed a melting point of 178 to 180 °C. Also, the inhibition constant (Ki) (in general, a dissociation constant, usually derived from enzyme kinetics or from competition with a known ligand) in [1] turned out to be 213 ± 8 nM.

For the compound `CN(C)CCn1cnc2ccc(NS(=O)(=O)c3ccccc3)cc21` [Compound 4], the melting point lay in the range of 138 to 140 °C. This compound also returned an inhibition constant (Ki) in series [1] of 200 ± 10 nM.

With `NCCc1c[nH]c2ccc(O)cc12` [Compound 5-HT, 5-HT], the “cAMP release (5-HT) Efficacy” value in [2] (5-HT6R F285A), in series [3] (5-HT6R C110A), in series [4] (5-HT6R WT), in series [5] (5-HT6R N288A) and in series [6] (5-HT6R S193A) was “agonist” throughout.

As to `CN(C)CCn1cnc2c(NS(=O)(=O)c3ccc4c(Cl)cccc4c3)cccc21` [Compound 5], the melting point lay within 76 to 78 °C. The compound also registered an inhibition constant (Ki) in [1] of 64 nM.

As for `CN(C)CCn1cnc2cc(NS(=O)(=O)c3ccc4c(Cl)cccc4c3)ccc21` [Compound 6], the melting point lay in the range of 92 to 95 °C. For the same compound, in [1], the inhibitory constant (Ki) worked out at 112 nM.

Consider `CN(C)CCn1cnc2ccc(NS(=O)(=O)c3ccc4c(Cl)cccc4c3)cc21` [Compound 7, 5-Chloro-N-{1-[2-(dimethylamino)ethyl]-1H-benzimidazol-6-yl}naphthalene-2-sulfonamide], for which the CLint scaled at 5 μM in series [7] (calculated from t1/2, read-out: intrinsic clearance (CLint)) is 8 mL/min/kg. The half-life at 5 μM in [7] (read-out: half-life time (t1/2)) was determined as 77.5 min. For the same compound, the IC50 in series [2] (setting [16]) was around 31600 nM; in [8], above 10000 nM; in series [3] (setting [16]) it was 158 nM; in [4] it was 15.8 nM; in series [5] (setting [16]) it was 126 nM; in series [6] (setting [16]), 1260 nM. Also, the “effect on time-induced memory deficit in NORT (exploration of novel vs familiar object)” value in series [9] (1 mg/kg, ip, 1 mg/kg) is on record as “in vivo procognitive activity; also recorded: animals spent more time exploring the novel object than the familiar one; also recorded: significant reversal of the time-delay induced memory deficit”. The figures for the inhibition at 1 µM in [10] and in [12] were 16% and below 23%, respectively. In addition, the “disappearance of the 5-HT induced response” value in series [4] is at least 95%. Besides, in [4], the “functional character at the human 5-HT6R in the AC assay” value is “antagonists”. The “increase in cAMP levels by ligand alone (agonist effect)” value in [4] is “did not induce a substantial increase in cAMP levels”. The activity at 30 min, 10 µM in [11] amounted to 78%. For the same compound, the half-life at 1 μM in [13] (RLMs, compound at 1 μM, read-out: half-life time (t1/2)) was 20.7 min. Moreover, the CLint scaled at 1 μM in series [13] (read-out: intrinsic clearance (CLint)) turned out to be 67.8 mL/min/kg. This compound also came in with an inhibition constant (Ki) in [1] of 9 nM. In series [14], the “binding to HSA” value was found to be 70%. For the same compound, the Papp at 5 h, 200 μM in series [15] is 12 ×10⁻⁶ cm/s.

In turn, `Cc1c(S(=O)(=O)Nc2cccc3c2ncn3CCN(C)C)sc2ccc(Cl)cc12` [Compound 8] yielded a melting point of 90 to 93 °C. This compound returned a Ki in [1] of 89 nM.

Turning to `Cc1c(S(=O)(=O)Nc2ccc3c(c2)ncn3CCN(C)C)sc2ccc(Cl)cc12` [Compound 9], the melting point was in the range of 90 to 93 °C. The compound further showed an inhibition constant Ki in series [1] of 245 nM.

Take `Cc1c(S(=O)(=O)Nc2ccc3ncn(CCN(C)C)c3c2)sc2ccc(Cl)cc12` [Compound 10]: the melting point is 114 to 115 °C. Moreover, in [4], the “disappearance of the 5-HT induced response” value is at least 95%, the “functional character at the human 5-HT6R in the AC assay” value is “antagonists”, the “increase in cAMP levels by ligand alone (agonist effect)” value was “did not induce a substantial increase in cAMP levels” and the IC50 is 50.1 nM. Further, in [1], the Ki was found to be 25 nM.

With `CN(C)CCn1cnc2c(NS(=O)(=O)c3c(Cl)nc4sccn34)cccc21` [Compound 11], the melting point lay within 71 to 74 °C. For the same compound, the Ki in series [1] amounted to 200 ± 13 nM.

For the compound `CN(C)CCn1cnc2cc(NS(=O)(=O)c3c(Cl)nc4sccn34)ccc21` [Compound 12], the melting point was in the range of 99 to 101 °C. In [1], this compound displayed a Ki of 33 ± 3 nM.

For the compound `CN(C)CCn1cnc2ccc(NS(=O)(=O)c3c(Cl)nc4sccn34)cc21` [Compound 13], the melting point lay within 139 to 141 °C. Further, in [1], the Ki turned out to be 182 ± 6 nM.

Regarding `CN(C)CCn1cnc2ccc(NS(=O)(=O)c3ccc4cc(Cl)ccc4c3)cc21` [Compound 14], the melting point is 181 °C (dec.). For the same compound, the inhibitory constant (Ki) in series [1] is above 500 nM.

On to `CN(C)CCn1cnc2ccc(NS(=O)(=O)c3cccc4c(Cl)cccc34)cc21` [Compound 15], for which the melting point was 223 °C (dec.). This compound had an inhibition constant Ki in series [1] of 238 nM.

In series [1], `CN(C)CCn1cnc2ccc(NS(=O)(=O)c3ccc4c(Br)cccc4c3)cc21` [Compound 16] registered a Ki of 12 nM.

In turn, `Cc1c(S(=O)(=O)Nc2ccc3ncn(CCN(C)C)c3c2)sc2ccc(Br)cc12` [Compound 17] gave an inhibition constant (Ki) in [1] of 37 nM.

As for `CN(C)CCn1cnc2ccc(NS(=O)(=O)c3ccc4ccccc4c3)cc21` [Compound 18], the melting point was in the range of 207 to 208 °C. The compound also yielded a Ki in series [1] of 144 nM.

In turn, `Cc1c(S(=O)(=O)Nc2ccc3ncn(CCN(C)C)c3c2)sc2ccccc12` [Compound 19] came in with a melting point of 175 to 176 °C. The compound also came in with a Ki in series [1] of 195 nM.

In turn, `CN(C)CCCn1cnc2c(C(=O)Nc3ccccc3)cccc21` [Compound S1] came in with a melting point of 104 to 106 °C. For the same compound, the Ki in series [1] was above 500 nM.

As to `CN(C)CCCn1cnc2cc(C(=O)Nc3ccccc3)ccc21` [Compound S2], the melting point was in the range of 108 to 110 °C. In series [1], this compound yielded a Ki above 500 nM.

In turn, `CN(C)CCn1cnc2c(NC(=O)c3ccccc3)cccc21` [Compound S7] showed a melting point of 109 to 112 °C. Also, the Ki in [1] was above 500 nM.

Regarding `CN(C)CCn1cnc2cc(NC(=O)c3ccccc3)ccc21` [Compound S8], the melting point fell in the range of 113 to 115 °C. For the same compound, in series [1], the Ki was above 500 nM.

In turn, `CN(C)CCn1cnc2ccc(NC(=O)c3ccccc3)cc21` [Compound S9] came in with a melting point of 115 to 117 °C. The same compound returned an inhibitory constant (Ki) in [1] above 500 nM.

`CN(C)CCn1cnc2cccc(NC(=O)c3ccccc3)c21` [Compound S10] had a melting point of 98 to 101 °C. For the same compound, the inhibition constant Ki in [1] is above 500 nM.

Regarding `CN(C)CCn1cnc2cccc(NS(=O)(=O)c3ccccc3)c21` [Compound S11], the melting point lay in the range of 142 to 145 °C. This compound also displayed a Ki in series [1] above 500 nM.

With `CC(C)NCC(O)COc1cccc2ccccc12` (centres unmarked) [propranolol, reference compound], the Papp at 5 h, 200 μM in series [15] was determined as 25 ×10⁻⁶ cm/s.

As to `Nc1c2c(nc3ccccc13)CCCC2` [tacrine, reference compound], in series [9] (0.5 mg/kg, po), the “effect on time-induced memory deficit in NORT (exploration of novel vs familiar object)” value is reported as “animals spent more time exploring the novel object than the familiar one”.
